Assay results: PubChem BioAssay (NCI)
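In this assay, cells in 96-well plates receive the compound at five concentrations for 48 hours. Endpoints are linearly interpolated between the surrounding concentrations. GI50: concentration for 50% inhibition of growth. TGI marks complete inhibition of growth.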

test system: CCRF-CEM leukemia; assay: DTP human tumour cell line panel, 48 h

Compound	GI50	TGI
O=c1cccc(C#CC#C[C@@H]2O[C@H]2CO)o1	192 nM	–
CSc1csc(-c2ccc(-c3ccc(-c4cc(SC)cs4)s3)s2)c1	–	> 100000 nM
CCCCCCn1c(-c2ccc(C(=O)O/N=C(\N)c3ccc4c(c3)OCO4)cc2)nc(-c2ccccc2)c1-c1ccccc1	1290 nM	4250 nM

test system: OVCAR-8 ovarian; assay: DTP human tumour cell line panel, 48 h

Compound	GI50	TGI
O=c1[nH]c(-c2cccc(F)c2)cc2cc(F)ccc12	951 nM	> 100000 nM
O=c1cccc(C#CC#C[C@@H]2O[C@H]2CO)o1	1030 nM	3120 nM
CCCCCCn1c(-c2ccc(C(=O)O/N=C(\N)c3ccc4c(c3)OCO4)cc2)nc(-c2ccccc2)c1-c1ccccc1	2460 nM	7090 nM

test system: NCI-H522 lung; assay: DTP human tumour cell line panel, 48 h

Compound	GI50	TGI
O=c1[nH]c(-c2cccc(F)c2)cc2cc(F)ccc12	334 nM	> 100000 nM
O=c1cccc(C#CC#C[C@@H]2O[C@H]2CO)o1	814 nM	–
CCCCCCn1c(-c2ccc(C(=O)O/N=C(\N)c3ccc4c(c3)OCO4)cc2)nc(-c2ccccc2)c1-c1ccccc1	1810 nM	3920 nM
[N-]=[N+]=CC(=O)OC(CCl)CCl	–	> 100000 nM

test system: UO-31 renal; assay: DTP human tumour cell line panel, 48 h

Compound	GI50	TGI
O=c1[nH]c(-c2cccc(F)c2)cc2cc(F)ccc12	1650 nM	> 100000 nM
O=c1cccc(C#CC#C[C@@H]2O[C@H]2CO)o1	1060 nM	2880 nM
CSc1csc(-c2ccc(-c3ccc(-c4cc(SC)cs4)s3)s2)c1	–	> 100000 nM
CCCCCCn1c(-c2ccc(C(=O)O/N=C(\N)c3ccc4c(c3)OCO4)cc2)nc(-c2ccccc2)c1-c1ccccc1	1280 nM	2590 nM
[N-]=[N+]=CC(=O)OC(CCl)CCl	–	> 100000 nM

test system: KM12 colon; assay: DTP human tumour cell line panel, 48 h

Compound	GI50	TGI
O=c1[nH]c(-c2cccc(F)c2)cc2cc(F)ccc12	307 nM	> 100000 nM
O=c1cccc(C#CC#C[C@@H]2O[C@H]2CO)o1	2060 nM	7470 nM
CSc1csc(-c2ccc(-c3ccc(-c4cc(SC)cs4)s3)s2)c1	–	> 100000 nM
CCCCCCn1c(-c2ccc(C(=O)O/N=C(\N)c3ccc4c(c3)OCO4)cc2)nc(-c2ccccc2)c1-c1ccccc1	3900 nM	> 100000 nM
[N-]=[N+]=CC(=O)OC(CCl)CCl	–	> 100000 nM

test system: A549 NSCLC; assay: DTP human tumour cell line panel, 48 h

Compound	GI50	TGI
O=c1[nH]c(-c2cccc(F)c2)cc2cc(F)ccc12	798 nM	> 100000 nM
O=c1cccc(C#CC#C[C@@H]2O[C@H]2CO)o1	2250 nM	4800 nM
CSc1csc(-c2ccc(-c3ccc(-c4cc(SC)cs4)s3)s2)c1	–	> 100000 nM
CCCCCCn1c(-c2ccc(C(=O)O/N=C(\N)c3ccc4c(c3)OCO4)cc2)nc(-c2ccccc2)c1-c1ccccc1	1410 nM	3680 nM

test system: MDA-MB-435; assay: DTP human tumour cell line panel, 48 h

Compound	GI50	TGI
O=c1[nH]c(-c2cccc(F)c2)cc2cc(F)ccc12	27.9 nM	79.7 nM
O=c1cccc(C#CC#C[C@@H]2O[C@H]2CO)o1	2120 nM	4560 nM
CSc1csc(-c2ccc(-c3ccc(-c4cc(SC)cs4)s3)s2)c1	–	> 100000 nM
CCCCCCn1c(-c2ccc(C(=O)O/N=C(\N)c3ccc4c(c3)OCO4)cc2)nc(-c2ccccc2)c1-c1ccccc1	1770 nM	3350 nM
[N-]=[N+]=CC(=O)OC(CCl)CCl	–	> 100000 nM

test system: BT-549 breast; assay: DTP human tumour cell line panel, 48 h

Compound	GI50	TGI
O=c1[nH]c(-c2cccc(F)c2)cc2cc(F)ccc12	737 nM	> 100000 nM
O=c1cccc(C#CC#C[C@@H]2O[C@H]2CO)o1	2000 nM	3730 nM
CSc1csc(-c2ccc(-c3ccc(-c4cc(SC)cs4)s3)s2)c1	–	> 100000 nM
CCCCCCn1c(-c2ccc(C(=O)O/N=C(\N)c3ccc4c(c3)OCO4)cc2)nc(-c2ccccc2)c1-c1ccccc1	2020 nM	5410 nM
[N-]=[N+]=CC(=O)OC(CCl)CCl	–	> 100000 nM

test system: 786-0 renal; assay: DTP human tumour cell line panel, 48 h

Compound	GI50	TGI
O=c1[nH]c(-c2cccc(F)c2)cc2cc(F)ccc12	2870 nM	> 100000 nM
O=c1cccc(C#CC#C[C@@H]2O[C@H]2CO)o1	626 nM	1430 nM
CSc1csc(-c2ccc(-c3ccc(-c4cc(SC)cs4)s3)s2)c1	–	> 100000 nM
CCCCCCn1c(-c2ccc(C(=O)O/N=C(\N)c3ccc4c(c3)OCO4)cc2)nc(-c2ccccc2)c1-c1ccccc1	1020 nM	2560 nM
[N-]=[N+]=CC(=O)OC(CCl)CCl	–	> 100000 nM

test system: IGROV1 ovarian; assay: DTP human tumour cell line panel, 48 h

Compound	GI50	TGI
O=c1[nH]c(-c2cccc(F)c2)cc2cc(F)ccc12	822 nM	> 100000 nM
O=c1cccc(C#CC#C[C@@H]2O[C@H]2CO)o1	183 nM	339 nM
CSc1csc(-c2ccc(-c3ccc(-c4cc(SC)cs4)s3)s2)c1	–	> 100000 nM
CCCCCCn1c(-c2ccc(C(=O)O/N=C(\N)c3ccc4c(c3)OCO4)cc2)nc(-c2ccccc2)c1-c1ccccc1	463 nM	1930 nM
[N-]=[N+]=CC(=O)OC(CCl)CCl	–	> 100000 nM

test system: RPMI-8226 leukemia; assay: DTP human tumour cell line panel, 48 h

Compound	GI50	TGI
O=c1[nH]c(-c2cccc(F)c2)cc2cc(F)ccc12	355 nM	> 100000 nM
O=c1cccc(C#CC#C[C@@H]2O[C@H]2CO)o1	1700 nM	5490 nM
CSc1csc(-c2ccc(-c3ccc(-c4cc(SC)cs4)s3)s2)c1	–	> 100000 nM
CCCCCCn1c(-c2ccc(C(=O)O/N=C(\N)c3ccc4c(c3)OCO4)cc2)nc(-c2ccccc2)c1-c1ccccc1	1940 nM	5250 nM
[N-]=[N+]=CC(=O)OC(CCl)CCl	–	> 100000 nM

test system: SK-MEL-28 melanoma; assay: DTP human tumour cell line panel, 48 h

Compound	GI50	TGI
O=c1[nH]c(-c2cccc(F)c2)cc2cc(F)ccc12	7500 nM	> 100000 nM
O=c1cccc(C#CC#C[C@@H]2O[C@H]2CO)o1	270 nM	1360 nM
CSc1csc(-c2ccc(-c3ccc(-c4cc(SC)cs4)s3)s2)c1	–	> 100000 nM
CCCCCCn1c(-c2ccc(C(=O)O/N=C(\N)c3ccc4c(c3)OCO4)cc2)nc(-c2ccccc2)c1-c1ccccc1	4470 nM	22700 nM
[N-]=[N+]=CC(=O)OC(CCl)CCl	–	> 100000 nM

test system: A498 renal; assay: DTP human tumour cell line panel, 48 h

Compound	GI50	TGI
O=c1[nH]c(-c2cccc(F)c2)cc2cc(F)ccc12	244 nM	2940 nM
O=c1cccc(C#CC#C[C@@H]2O[C@H]2CO)o1	17700 nM	33300 nM
CCCCCCn1c(-c2ccc(C(=O)O/N=C(\N)c3ccc4c(c3)OCO4)cc2)nc(-c2ccccc2)c1-c1ccccc1	1010 nM	3860 nM
[N-]=[N+]=CC(=O)OC(CCl)CCl	–	> 100000 nM

test system: NCI/ADR-RES ovarian; assay: DTP human tumour cell line panel, 48 h

Compound	GI50	TGI
O=c1[nH]c(-c2cccc(F)c2)cc2cc(F)ccc12	268 nM	> 100000 nM
O=c1cccc(C#CC#C[C@@H]2O[C@H]2CO)o1	1240 nM	4530 nM
CSc1csc(-c2ccc(-c3ccc(-c4cc(SC)cs4)s3)s2)c1	–	> 100000 nM
CCCCCCn1c(-c2ccc(C(=O)O/N=C(\N)c3ccc4c(c3)OCO4)cc2)nc(-c2ccccc2)c1-c1ccccc1	1680 nM	3650 nM

test system: NCI-H23 lung; assay: DTP human tumour cell line panel, 48 h

Compound	GI50	TGI
O=c1[nH]c(-c2cccc(F)c2)cc2cc(F)ccc12	1610 nM	> 100000 nM
O=c1cccc(C#CC#C[C@@H]2O[C@H]2CO)o1	230 nM	450 nM
CSc1csc(-c2ccc(-c3ccc(-c4cc(SC)cs4)s3)s2)c1	–	> 100000 nM
CCCCCCn1c(-c2ccc(C(=O)O/N=C(\N)c3ccc4c(c3)OCO4)cc2)nc(-c2ccccc2)c1-c1ccccc1	1480 nM	3050 nM
[N-]=[N+]=CC(=O)OC(CCl)CCl	–	> 100000 nM
